One assay deals with P388. Kind of assay: Cytotoxicity against mouse P388 cells after 96 hrs by MTT assay. It is filed as functional, cell-based. To be noted: P388, 96 h.
In the next assay the test system is HeLa. Kind of assay: Cytotoxicity against human HeLa cells after 96 hrs by MTT assay. It is filed as functional, cell-based.

In brackets after ≈: the same amount, converted by molar mass.

With `CCCCCCCCCCCCCCCC/C=C(\Cl)CC/C=C\CCCC[C@@H]1OC[C@H](N)[C@@H]1O` [PENASIN B], the IC50 in the assay on P388 came to 50 µg/mL (≈ 100 µM); in the assay on HeLa, 10 µg/mL (≈ 20.1 µM).

Regarding `CCCCCCCCCCCCCCCC/C=C\CC/C=C\CCCC[C@@H]1OC[C@H](N)[C@@H]1O` [PENASIN], the values for the IC50 in the assay with P388 and with HeLa were 50 µg/mL (≈ 108 µM) and 10 µg/mL (≈ 21.6 µM), respectively.

The values above are taken from ChEMBL document CHEMBL1641389, “Penasins A-E, long-chain cytotoxic sphingoid bases, from a marine sponge Penares sp” (J Nat Prod, 2010).
